{"source": "patent US4657924A", "about": "“Nafazatrom as a lipoxygenase inhibitor” (priority 1983, dated 1987)", "key": {"5-lipoxygenase": {"system": "5-lipoxygenase", "assay": "5-lipoxygenase inhibition", "assay_type": "biochemical", "conditions": "selectively, versus 15- and 12-lipoxygenase"}, "leucocytes": {"system": "leucocytes", "assay": "Leucocyte stickiness in hamster cheek pouch venules", "assay_type": "in vivo, Syrian golden hamster", "conditions": "intraarterial, 1.0 mg/kg"}, "[1]": {"system": "cardiac infarction following ligation of the left coronary artery", "assay": "Coronary artery ligation in rats: cardiac infarction size and total mortality", "assay_type": "in vivo, rat (Wistar)", "conditions": "for Total mortality % / Infarction size, % of total heart: peroral; for reduction of infarction size: treatment after coronary ligature", "text": "Ligation of the left coronary artery of the rat heart and the disorders in cardiac rhythm which thereby occur form a relatively simple model for investigating substances having antiarrhythmic actions and effects on the developing myocardial ischaemia (Clark et al., J. Pharmacol. Meth. 3, 357, 1980). The effects of nafazatrom on antiarrhythmic and antiischaemic properties in conscious rats was investigated in this model. Particular importance was placed on the severity and quantity of disorders in cardiac rhythm which occurred.\nMale Wistar rats (250-350 g) were superficially anaesthetized with ether and investigated for rhythm disorders. Animals with rhythm abnormalities before the start of the experiment were excluded. In acute surgery, the animals were again anaesthetized with ether. In the lateral dorsal position, the thorax was opened somewhat to the left alongside the central line and the heart was exteriorized. Close below the left heart auricle, a silk ligature (3-0) was looped through the muscle of the left heart under the anterior coronary artery. Animals which developed rhythm disorders during this procedure were excluded. The left coronary artery was ligatured by the method described by Selye et al. (Angiology 11, 398, 1960), the heart was returned to the thorax and the wound was rapidly closed with thread. Since the thorax had not been opened for longer than about 45 seconds, artificial respiration of the animals was unnecessary. The operation mortality was between 25 and 40% within the first hours, and in particular myocardial haemorrhages, rhythm disorders with ventricular fibrillation, and massive cardiac infractions occurred. In a sham-operatedgroup, the same experimental conditions were investigated, with the exception that the coronary artery remained open. Shortly after the ligature had been made, early rhythm disorders were observed, which were accompanied in some cases (untreated) with ventricular fibrillations. In most cases, this ventricular fibrillation spontaneously turned into uniform sinus rhythm of heart contraction. The disorders in cardiac rhythm were evaluated by the plan described by Clark (see above). Ventricular tachycardia was defined as the result of more than 10 successive rhythm disorders with extrasystoles. Electrocardiographic changes included a rise in the ST segment, a drop in the Q waves and a rise in the QT interval. The total number of ectopic activity in each individual animal was determined by counting the ventricular extrasystoles, including tachycardia and fibrillations.\nThree groups were investigated: group I received the diluent (1% strength aqueous Tylose suspension, that is to say methylhydroxyethyl-cellulose) twice daily perorally (0.5 ml/kg) for 10 days and by the same administration and in the same amount, after coronary ligature, for a further 20 days; group II was pretreated with the diluent for 10 days (0.5 ml/kg) and was treated with 30 or 100 mg/kg of nafazatrom (in each case suspended in 0.5 ml/kg of 1% strength Tylose suspension) twice daily perorally for 20 days, after coronary ligature (the first nafazatrom administration was effected immediately after the coronary ligature); group III received the above oral doses of nafazatrom in the course of 10 days before the ligature, and the diluent Tylose suspension for 10 days after the coronary occlusion had been effected. The sham-operated animals remained untreated. The peripheral ECG in the extremities was determined in lead II, and in particular, as a control before the start of treatment, shortly before and during coronary ligature, 10 minutes after coronary ligature had been effected, and--after renewed ether anaesthesia-- between the 2nd and 4th hour after coronary occlusion. Each time, the animals were superficially anaesthetized again with ether when the ECG was recorded. At the end of the treatment period, a last ECG was recorded shortly before the animals were sacrificed. […]"}, "[2]": {"system": "ischaemia-induced ECG changes", "assay": "Animal experiments: ECG changes in ischaemia", "assay_type": "in vivo"}, "[3]": {"system": "prostacyclin (PGI2) from the vascular endothelium", "conditions": "Vermylen et al., Chamone et al., McIntyre and Salzman; cited from earlier work"}}, "data": [{"smiles": "CC1=NN(CCOc2ccc3ccccc3c2)C(=O)C1", "note": "[nafazatrom, 3-methyl-1-[2-(2-naphthyloxy)-ethyl]-2-pyrazolin-5-one]", "values": [{"measurement": "inhibition of 5-lipoxygenase", "setting": "5-lipoxygenase", "result": "selectively inhibits"}, {"measurement": "duration of action", "setting": "leucocytes", "result": "about 60 minutes"}, {"measurement": "increase in the number of leucocytes", "setting": "leucocytes", "result": "60-100%"}, {"measurement": "total mortality", "setting": "[1]; after-treated with 30 mg/kg", "result": 22, "unit": "%"}, {"measurement": "total mortality", "setting": "[1]; after-treated with 100 mg/kg", "result": 12, "unit": "%"}, {"measurement": "infarctions in comparison with the control animals treated only with Tylose", "setting": "[1]; both groups (before or after coronary ligature)", "result": "significantly smaller"}, {"measurement": "Total mortality %", "setting": "[1]; group II, after-treatment 30 mg/kg, 2 × daily, 20 days", "result": 24, "unit": "%"}, {"measurement": "Infarction size, % of total heart", "setting": "[1]; group II, after-treatment 30 mg/kg, 2 × daily, 20 days, 15 animals", "result": 31.5, "unit": "%"}, {"measurement": "Total mortality %", "setting": "[1]; group II, after-treatment 100 mg/kg, 2 × daily, 20 days", "result": 22, "unit": "%"}, {"measurement": "Infarction size, % of total heart", "setting": "[1]; group II, after-treatment 100 mg/kg, 2 × daily, 20 days, 18 animals", "result": 26.7, "unit": "%"}, {"measurement": "Total mortality %", "setting": "[1]; group III, pre-treatment 30 mg/kg, 10 days", "result": 22, "unit": "%"}, {"measurement": "Infarction size, % of total heart", "setting": "[1]; group III, pre-treatment 30 mg/kg, 10 days, 12 animals", "result": 28.0, "unit": "%"}, {"measurement": "Total mortality %", "setting": "[1]; group III, pre-treatment 100 mg/kg, 10 days", "result": 12, "unit": "%"}, {"measurement": "Infarction size, % of total heart", "setting": "[1]; group III, pre-treatment 100 mg/kg, 10 days, 16 animals", "result": 22.7, "unit": "%"}, {"measurement": "reduction of infarction", "setting": "[1]; pre-treatment 30 mg/kg", "result": 36, "unit": "%"}, {"measurement": "reduction of infarction", "setting": "[1]; pre-treatment 100 mg/kg", "result": 48, "unit": "%"}, {"measurement": "reduction of infarction size", "setting": "[1]; 30 mg/kg", "result": 28, "unit": "%"}, {"measurement": "reduction of infarction size", "setting": "[1]; 100 mg/kg", "result": 39, "unit": "%"}, {"measurement": "R-wave in the ECG of the peripheral extremities", "setting": "[2]; in vivo", "result": "increases less sharply and re-forms more rapidly"}, {"measurement": "ST intervals compared with the controls", "setting": "[2]; in vivo", "result": "changed less than in the controls"}, {"measurement": "ischaemia-induced rise in the ST zone", "setting": "[2]; indication of infarction", "result": "reduces the ischaemia-induced rise in the ST zone"}, {"measurement": "stimulation of endogenous prostacyclin (PGI2)", "setting": "[3]", "result": "stimulator of endogenous prostacyclin (PGI2)"}]}]}
